Laboratory results taken from the supplement of paper PMC11451515.

System: P12-Ichikawa
Test: cell viability relative to DMSO control; higher = less cytotoxic
Conditions: 48 h
Outline: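 NOMO1 or SEM (500 cells/well) or P12-Ichikawa (1000 cells/well) leukemia cells were adapted for at least four passages in each medium. They were seeded in 1536-well plates (5 μl) and pin-dosed with library compounds in DMSO over an 11-point threefold series, 47 μM to 0.79 nM. CellTiter-Glo One luminescence was read after 48 h at 37°C. Viability is the per-plate percentage relative to DMSO wells, with cell-free wells as background.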

[1] = HPLM + 10% dialyzed FBS, 0.000781 µM
[2] = HPLM + 10% dialyzed FBS, 0.00234 µM
[3] = HPLM + 10% dialyzed FBS, 0.00702 µM
[4] = HPLM + 10% dialyzed FBS, 0.0211 µM
[5] = HPLM + 10% dialyzed FBS, 0.0632 µM
[6] = HPLM + 10% dialyzed FBS, 0.19 µM
[7] = HPLM + 10% dialyzed FBS, 0.569 µM
[8] = HPLM + 10% dialyzed FBS, 1.71 µM
[9] = HPLM + 10% dialyzed FBS, 5.12 µM
[10] = HPLM + 10% dialyzed FBS, 15.4 µM
[11] = HPLM + 10% dialyzed FBS, 46.1 µM
[12] = RPMI 5 mM glucose + 10% FBS, 0.000781 µM
[13] = RPMI 5 mM glucose + 10% FBS, 0.00234 µM
[14] = RPMI 5 mM glucose + 10% FBS, 0.00702 µM
[15] = RPMI 5 mM glucose + 10% FBS, 0.0211 µM
[16] = RPMI 5 mM glucose + 10% FBS, 0.0632 µM
[17] = RPMI 5 mM glucose + 10% FBS, 0.19 µM
[18] = RPMI 5 mM glucose + 10% FBS, 0.569 µM
[19] = RPMI 5 mM glucose + 10% FBS, 1.71 µM
[20] = RPMI 5 mM glucose + 10% FBS, 5.12 µM
[21] = RPMI 5 mM glucose + 10% FBS, 15.4 µM
[22] = RPMI 5 mM glucose + 10% FBS, 46.1 µM
[23] = RPMI 5 mM glucose + 10% dialyzed FBS, 0.000781 µM
[24] = RPMI 5 mM glucose + 10% dialyzed FBS, 0.00234 µM
[25] = RPMI 5 mM glucose + 10% dialyzed FBS, 0.00702 µM
[26] = RPMI 5 mM glucose + 10% dialyzed FBS, 0.0211 µM
[27] = RPMI 5 mM glucose + 10% dialyzed FBS, 0.0632 µM
[28] = RPMI 5 mM glucose + 10% dialyzed FBS, 0.19 µM
[29] = RPMI 5 mM glucose + 10% dialyzed FBS, 0.569 µM
[30] = RPMI 5 mM glucose + 10% dialyzed FBS, 1.71 µM
[31] = RPMI 5 mM glucose + 10% dialyzed FBS, 5.12 µM
[32] = RPMI 5 mM glucose + 10% dialyzed FBS, 15.4 µM
[33] = RPMI 5 mM glucose + 10% dialyzed FBS, 46.1 µM

SMILES	cell viability [1]	cell viability [2]	cell viability [3]	cell viability [4]	cell viability [5]	cell viability [6]	cell viability [7]	cell viability [8]	cell viability [9]	cell viability [10]	cell viability [11]	cell viability [12]	cell viability [13]	cell viability [14]	cell viability [15]	cell viability [16]	cell viability [17]	cell viability [18]	cell viability [19]	cell viability [20]	cell viability [21]	cell viability [22]	cell viability [23]	cell viability [24]	cell viability [25]	cell viability [26]	cell viability [27]	cell viability [28]	cell viability [29]	cell viability [30]	cell viability [31]	cell viability [32]	cell viability [33]
O=C(O)c1ccc(-n2nc(-c3ccccc3O)nc2-c2ccccc2O)cc1	96.8%	114%	104%	107%	104%	108%	108%	99.9%	82%	70%	48.9%	82.8%	94.8%	107%	99.8%	102%	104%	101%	104%	73.3%	53.3%	29.3%	86.7%	103%	105%	96.2%	95.5%	102%	102%	96.7%	79.7%	55.7%	22.2%
OCc1ccc(-c2nn(Cc3ccccc3)c3ccccc23)o1	118%	109%	103%	107%	113%	108%	104%	93.8%	96.5%	105%	73.7%	117%	119%	128%	126%	113%	115%	117%	104%	116%	113%	60.9%	109%	110%	108%	112%	100%	108%	113%	103%	102%	98.9%	49.5%
Cn1cc(-c2ccc3nnc(C(F)(F)c4ccc5ncccc5c4)n3n2)cn1	116%	117%	117%	116%	113%	115%	109%	108%	101%	95.8%	82.9%	114%	117%	117%	124%	109%	113%	113%	106%	107%	101%	81.7%	119%	112%	120%	118%	113%	119%	118%	112%	101%	102%	85.6%
CC(=O)CC(C1=CC=CC=C1)C/2=C(O)/C3=CC=CC=C3OC2=O (centres undefined)	106%	112%	108%	117%	111%	125%	123%	120%	113%	118%	123%	105%	120%	130%	128%	130%	132%	132%	127%	128%	132%	124%	106%	122%	116%	125%	128%	127%	125%	121%	132%	132%	129%
CCC(=O)OCC(=O)[C@@]1(OC(=O)CC)[C@@H](C)C[C@H]2[C@@H]3CCC4=CC(=O)C=C[C@]4(C)[C@@]3(F)[C@@H](O)C[C@@]21C	107%	110%	111%	107%	111%	96.4%	80.1%	65.9%	64.3%	12.3%	6.01%	106%	111%	121%	108%	102%	89.9%	73.4%	68.6%	56%	6.2%	6.14%	101%	111%	107%	94.8%	90.3%	76.2%	67.6%	54.6%	52.2%	5.68%	4.77%
COc1cc(O)c2c(c1)C1OC1C[C@H](O)[C@H](O)C(=O)/C=C\C[C@H](C)OC2=O (some centres undefined)	99.6%	112%	114%	110%	110%	120%	112%	112%	112%	81.5%	11.3%	113%	112%	118%	110%	115%	114%	116%	125%	117%	80.5%	13.5%	96.5%	117%	116%	118%	114%	135%	124%	123%	132%	85.1%	14.3%
CC\1=C(C(=O)N(\C=C1)C2=CC=C(C=C2)C3=NC=CO3)/C4=CC5=CN=C(N)N=C5C=C4	105%	114%	111%	108%	115%	111%	109%	117%	105%	110%	91.3%	106%	112%	108%	102%	112%	105%	109%	102%	106%	98.6%	80.2%	102%	103%	111%	112%	117%	109%	111%	110%	94.2%	105%	79.6%
CNC1[C@@H](O)C(O[C@@H]2C(O)C(O[C@H]3O[C@H]([C@@H](C)NC)CC[C@H]3N)[C@@H](N)C[C@H]2N)OC[C@]1(C)O (some centres undefined)	104%	98.3%	102%	99.6%	96.5%	102%	102%	98.6%	89.6%	90.8%	85.4%	92.8%	88.9%	97.7%	91.8%	93%	102%	95.2%	97.1%	87.9%	82.4%	92.2%	92.7%	89.9%	90%	93%	97.8%	92.2%	94.1%	92.3%	89.4%	82.7%	88.4%
